Reference: patent US20230060873A1, “COMPOUNDS AND METHODS FOR FORMING ION CHANNELS IN BIOLOGICAL MEMBRANES” (Washington University, priority 2021, published 2023)
In brackets after ≈: the same amount, converted by molar mass.

Assays:
B. subtilis membranes = assay: DiSC3(5) depolarization assay, MAcBCE/MAkBCE; type: cell-based, Bacillus subtilis; details: 2 μM compound, 60 mM KCl, NaCl or NMDG-Cl; for change in DiSC3(5) fluorescence (membrane depolarization): 25° C, 10 minutes
Procedure: A 2 mL liquid culture of transformed B. subtilis cells was grown at 37° C. in LB medium supplemented with 5 μg/mL kanamycin until OD600=0.6 was reached. The cells were collected by centrifugation at 2000 rpm over 3 min. The bacteria were washed twice with an NMDG-MeSO3 solution (100 mM NMDG, 10 mM HEPES, pH adjusted to 7.4 with methane sulfonic acid). […] The working dye solution was a 200 μM solution of DiSC3(5) (3,3′-dipropylthiadicarbocyanine iodide; Tokyo Chemical Industry) in DMSO. A series of 2 M solutions of NMDG-Cl, NaCl and KCl were prepared containing 10 mM HEPES; the pH was adjusted to pH 7.4 with NMDG, NaOH or KOH, respectively, to avoid any pH changes after their addition. The experiment was initiated with 3 mL of NMDG-MeSO3 in a quartz cuvette, then 5 μL of the dye solution was added (timepoint t1, 50 sec) for a 0.3 μM final concentration by the end of experiment. This was followed by the addition of 100 μL of the B. subtilis suspension (timepoint t2, 100 sec). After 150 sec (timepoint t3, 250 sec), the fluorescence stabilized to a minimum intensity and 100 μL of the 2 M NMDG-Cl, NaCl or KCl solution was added to reach ˜60 mM final concentration of the salt. The final step was the addition 0.64 μL of a 10 mM stock solution of the desired MAcBCE or MAkBCE compound in TFE (timepoint t4, 400 sec), for a final concentration of 2 μM. Negative controls were performed by adding the same volume of pure TFE to the cuvette at timepoint t4. Fluorescence intensity was recorded each second using a Horiba Fluoromax 4 spectrometer (λexcitation=640 nm; λemission=670 nm). The solution inside the cuvette was vigorously mixed throughout the experiment by using a magnetic stirrer and the temperature was kept constant at 25° C. For purposes of normalization, the fluorescence intensity was divided by the fluorescence level just before timepoint t2.
To determine whether MAcBCE or MAkBCE compounds catalyse ion-selective flux, a set of highly bioactive members bearing ten-carbon chain lengths were tested for their ability to depolarize B. subtilis membranes using a test based on the fluorescent dye 3,3-dipropylthiadicarbocyanine (DiSC3(5)). This set of compounds were selected as four of the most toxic members of the MAcBCE and MAkBCE compound library (5-O-10, 5-A-10, 6-O-10, and 6-A-10; FIG. 3) belong to this group and all are soluble in TFE. The two non-toxic benzo(12-crown-4) scaffold members (4-O-10 and 4-A-10; FIG. 3) were used as controls.
FIGS. 4 and 5 show the time course of DiSC3(5) fluorescence due to the addition of 2 μM 6-A-10 (FIG. 4) and 6-O-10 (FIG. 5). The average of the final fluorescence values (mean±S.E.M.) of at least three experiments are shown in FIGS. 4 and 5 and are similarly plotted for 4-A-10 (FIG. 6), 5-A-10 (FIG. 7), 6-A-10 (FIG. 8), 4-O-10 (FIG. 9), 5-O-10 (FIG. 10), and 6-O-10 (FIG. 11). Experiments were performed in a NMDG-MeSO3 solution (100 mM NMDG, 10 mM HEPES, pH adjusted to 7.4 with methane sulfonic acid). The events are: t1, addition of dye; t2, addition of B. subtilis; t3, addition of a 2 M NMDG-Cl, 2 M NaCl or a 2 M KCl solution up to a final concentration of 60 mM; t4, addition of each MAcBCE or MAkBCE compound up to 2 μM. Experiments were repeated at least four times per condition and normalized relative to the fluorescence intensity just before the addition of cells.
The potentiometric dye DiSC3(5) was used to measure the ability of MAcBCE and MAkBCE compounds to catalyse ion-selective transport. DiSC3(5) undergoes membrane voltage-dependent partitioning between the intracellular and the extracellular medium. DiSC3(5) accumulates within a cell with a polarized membrane (negatively charged inside the cell) and is released when the cell membrane is depolarized (positively charged inside the cell). The membrane voltage in B. subtilis is roughly −120 mV, leading to DiSC3(5) accumulation in the bacteria (timepoint t2 in FIG. 4A-B). […]

Bacillus subtilis [1] = assay: Toxicity (MIC) of MAcBCE and MAkBCE compounds on B. subtilis; type: cell-based; details: B. subtilis 168 WT with pRB374, 12 h, up to 400 μM
Procedure: XL1 blue strain Escherichia coli cells transformed with pET28a plasmid containing a kanamycin resistance gene, were grown at 37° C. in 2 mL of LB medium (Miller's LB broth, Research Products International) supplemented with 50 μg/mL of kanamycin, until the optical density (OD600) reached 0.6. The starting density of bacteria in the remainder of the experiments was a 1/100 dilution of this bacterial density, which was split into 4 mL cultures. A series of 400, 100, 10 and 5 mM stock solutions of each monoacylated benzo(crown-ether) (MAcBCE) and monoalkylated benzo(crown-ether) (MAkBCE) compounds in trifluoroethanol (TFE) were diluted by addition to the 4 mL cultures to reach final concentrations of 400, 200, 100, 50, 20, 15, 10, 5, 4, 3, 2 and 1 μM. The final TFE concentration was never higher than 0.1% v/v. Negative controls in the presence of TFE 0.1% v/v or in the absence of any treatment for each batch gave similar bacterial growth. The cultures were incubated at 37° C. with agitation for 12 h. Bacillus subtilis (168 WT) toxicity tests were carried out using an identical protocol, except they were transformed with the shuttle plasmid pRB374 in the presence of 5 μg/mL of kanamycin. […] Each compound was assayed a minimum of three times at each tested concentration.
The cytotoxicity of MABCE compounds was determined by measuring the MIC in liquid cultures of either the gram-negative bacteria Escherichia coli or the gram-positive bacteria Bacillus subtilis. […] As some curves overlap, portions of them are hidden. Values of MIC of 400 μM indicate that the value was either 400 μM, or it was higher and then was not determined. Each compound was assayed a minimum of three times at each different concentration. MICs for 5-A-4, 5-A-11, 6-A-11 and 6-O-11 could not be determined because the compounds were not soluble in TFE. While E. coli was not susceptible to any of the tested compounds at concentrations as high as 400 μM (data not shown), B. subtilis was susceptible to MABCE compounds bearing 15-crown-5 and 18-crown-6 scaffolds, but not to compounds containing a 12-crown-4 scaffold, as shown in FIG. 1.

[2] = Solubility in trifluoroethanol (TFE); type: physicochemical; details: trifluoroethanol stock solutions
Bacillus subtilis [3] = assay: Toxicity (MIC) of dialkylated lariat ethers on B. subtilis; type: cell-based; details: B. subtilis 168 WT, 12 h, visual turbidity, read-out: minimum inhibitory concentration (MIC)
Procedure: The cyto-toxicity was determined by measuring the minimum inhibitory concentrations (MIC) for this series of dialkylated lariat ethers in the Gram-negative bacteria Escherichia coli, the Gram-positive bacteria Bacillus subtilis, and human embryonic kidney (HEK293T) cells.
On bacteria. XL1 blue strain Escherichia coli cells transformed with a pET28a plasmid (which contains a kanamycin resistance gene) were grown at 37° C. in 2 mL of LB medium (Miller's LB broth, Research Products International) supplemented with 50 μg/mL of kanamycin until the optical density (600 nm) reached 0.600. The starting density of bacteria in the remainder of the experiments was a 1/100 dilution of this bacterial density, which was split into 4 mL cultures. A series of 400, 100, 10 and 5 mM stock solutions of each dialkylated diaza(18-crown-6) compounds in trifluoroethanol (TFE) were diluted by adding to the 4 mL cultures until final concentrations of 400, 200, 100, 50, 20, 15, 10, 5, 4, 3, 2 and 1 μM were reached, with the final TFE concentration never >0.1% v/v. Negative controls in the presence of TFE 0.1% v/v or the absence of any treatment were done for each batch. The cultures were incubated at 37° C. with agitation for 12 h. Bacillus subtilis (168 WT) toxicity tests were carried out using an identical protocol, except for the addition of the antibiotic. […] Each compound was assayed a minimum of three times at each tested concentration.

[4] = Planar lipid bilayer ion channel recordings; type: biochemical; details: 2 μM; bilayer clamped at 100 mV; 150 mM KCl, 10 mM HEPES, pH 7.4
Procedure: Experiments in planar lipid bilayers were performed via a Nanion Orbit-mini planar bilayer system. The planar membranes were formed by painting a 25 mg/mL solution of lipids in n-nonane over the four 50 μm apertures on the chip. The lipids used were asolectin from soybean (Sigma-Aldrich) or a 3:1 w/w mix of 1-palmitoyl-2-oleoyl-sn-glycero-3-phosphoethanolamine (POPE) and 1-palmitoyl-2-oleoyl-sn-glycero-3-phospho-(1′-rac-glycerol) (POPG) (Avanti Polar lipids). The solutions tested were KCl solution (150 mM KCl, 10 mM HEPES, pH adjusted to 7.4 with KOH), NaCl solution (150 mM NaCl, 10 mM HEPES, pH adjusted to 7.4 with NaOH), and a concentrated KCl solution (500 mM KCl, 10 mM HEPES, pH adjusted to 7.4 with KOH). When the appropriate membrane formed, the voltage was clamped at 100 mV or −100 mV, and a stock solution of gramicidin D (Sigma-Aldrich) in DMSO or LEC10 in TFE were added up to the desired concentration. The tested concentration of gramicidin D was 1 nM and 2, 10, 100 and 200 μM were tested for LEC10. Two different temperatures were tested for each condition: 25 and 37° C. The current was recorded over 10 min for the gramicidin test and up to 1 h for the LEC10 test. The data was analyzed with Clampfit 10.7 software (Axon Instruments).
FIGS. 41 and 42 show the lipid bilayer recordings. Current through the asolectin planar lipid bilayer clamped at 100 mV was recorded in the presence of […] (FIG. 41) and 2 μM LEC10 (FIG. 42). In both cases, the solution was 150 mM KCl, 10 mM HEPES, pH 7.4. […] This lack of unitary channel formation, or even a carrier-like increase of the conductance, precludes an ionophore-like mechanism of ion transport.

Molecule | toxicity / susceptibility of B. subtilis (MIC, FIG. 1) (Bacillus subtilis [1]) | solubility in TFE [2] | also measured
CCCCCCCCCCc1ccc2c(c1)OCCOCCOCCO2 [Compound 4-A-10, 12-decyl-2,3,5,6,8,9-hexahydrobenzo[b][1,4,7,10]tetraoxacyclododecine] | non-toxic | – | change in DiSC3(5) fluorescence (membrane depolarization) (B. subtilis membranes): negligible
CCCCCCCCCC(=O)c1ccc2c(c1)OCCOCCOCCO2 [Compound 4-O-10, 1-(2,3,5,6,8,9-hexahydrobenzo[b][1,4,7,10]tetraoxacyclododecin-12-yl)decan-1-one] | non-toxic | – | change in DiSC3(5) fluorescence (membrane depolarization) (B. subtilis membranes): negligible
CCCCc1ccc2c(c1)OCCOCCOCCOCCO2 [Compound 5-A-4, 15-butyl-2,3,5,6,8,9,11,12-octahydrobenzo[b][1,4,7,10,13]pentaoxacyclopentadecine] | – | not soluble | –
CCCCCCCCCCc1ccc2c(c1)OCCOCCOCCOCCO2 [Compound 5-A-10, 15-decyl-2,3,5,6,8,9,11,12-octahydrobenzo[b][1,4,7,10,13]pentaoxacyclopentadecine] | most toxic | – | kinetics of the depolarization, ion dependence (B. subtilis membranes): fastest in presence of K^+ followed by Na^+ and then NMDG^+
CCCCCCCCCCCc1ccc2c(c1)OCCOCCOCCOCCO2 [Compound 5-A-11, 15-undecyl-2,3,5,6,8,9,11,12-octahydrobenzo[b][1,4,7,10,13]pentaoxacyclopentadecine] | – | not soluble | –
CCCCCCCCCC(=O)c1ccc2c(c1)OCCOCCOCCOCCO2 [Compound 5-O-10, 1-(2,3,5,6,8,9,11,12-octahydrobenzo[b][1,4,7,10,13]pentaoxacyclopentadecin-15-yl)decan-1-one] | most toxic | – | kinetics of the depolarization, ion dependence (B. subtilis membranes): fastest in presence of K^+ followed by Na^+ and then NMDG^+
CCCCCCCCCCCc1ccc2c(c1)OCCOCCOCCOCCOCCO2 [Compound 6-A-11, 18-undecyl-2,3,5,6,8,9,11,12,14,15-decahydrobenzo[b][1,4,7,10,13,16]hexaoxacyclooctade-cine] | – | not soluble | –
CCCCCCCCCCC(=O)c1ccc2c(c1)OCCOCCOCCOCCOCCO2 [Compound 6-O-11, 1-(2,3,5,6,8,9,11,12,14,15-decahydrobenzo[b][1,4,7,10,13,16]hexaoxacyclooctadecin-18-yl)undecan-1-one] | – | not soluble | –
CCCCCCCCCCCN1CCOCCOCCN(CCCCCCCCCCC)CCOCCOCC1 [LEC11, Diundecyl diaza(18-crown-6)] | – | – | MIC (Bacillus subtilis [3]): 2 µM (≈ 1.14 µg/mL)
CCCCCCCCCCCCN1CCOCCOCCN(CCCCCCCCCCCC)CCOCCOCC1 [LEC12, Didodecyl diaza(18-crown-6)] | – | – | MIC (Bacillus subtilis [3]): 2 µM (≈ 1.2 µg/mL)
CCCCCCCCCCCCCN1CCOCCOCCN(CCCCCCCCCCCCC)CCOCCOCC1 [LEC13, Ditridecyl diaza(18-crown-6)] | – | – | MIC (Bacillus subtilis [3]): > 400 µM
gramicidin D | – | – | ion channel activity [4]: unitary channels
